Blank lines part the entries; values can stand above or below the molecule they belong to. Ends that are not written are not given here. * marks the point of attachment. acrylodan = CN(C)c1ccc2cc(C(=O)CC*)ccc2c1; Dansyl = CN(C)c1cccc2c(S(=O)(=O)*)cccc12
Legend:
hGOAT [1] = molecular target: T1, hGOAT (Homo sapiens, UniProt Q96T53); test: fluorescent ghrelin peptide substrates assayed for activity with hGOAT (HPLC with fluorescence detection); assay type: biochemical; settings: peptide as substrate for octanoylation by hGOAT
T1 construct: His10 (C); made in house; host or cells: Sf9 insect cells (baculovirus), membranes
T1 sequence (Q96T53 1-435): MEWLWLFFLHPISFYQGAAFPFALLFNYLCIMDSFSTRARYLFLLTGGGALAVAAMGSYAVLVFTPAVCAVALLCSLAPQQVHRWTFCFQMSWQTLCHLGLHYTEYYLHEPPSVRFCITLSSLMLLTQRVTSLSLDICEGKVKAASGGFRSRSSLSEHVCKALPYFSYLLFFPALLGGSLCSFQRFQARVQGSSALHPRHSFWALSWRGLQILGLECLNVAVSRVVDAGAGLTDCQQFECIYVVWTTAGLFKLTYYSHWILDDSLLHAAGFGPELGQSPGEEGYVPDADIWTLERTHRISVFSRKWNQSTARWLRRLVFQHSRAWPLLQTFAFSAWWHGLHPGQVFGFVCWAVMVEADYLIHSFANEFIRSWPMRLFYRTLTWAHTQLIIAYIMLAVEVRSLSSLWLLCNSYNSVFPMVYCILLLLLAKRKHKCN
Method: With the peptide substrates, the addition of the hydrophobic octanoyl group upon serine acylation at position 3 leads to an increase in retention time in reverse-phase (RP) HPLC. The panel of fluorescent ghrelin peptide substrates was assayed for activity with hGOAT using HPLC coupled with fluorescence detection of the fluorescently labeled peptides. All reactions with hGOAT-His10 membranes were performed in parallel with mock membranes to account for nonspecific peptide modifications.
(§1) An assay for human ghrelin O-acyltransferase activity was performed using hGOAT expressed from insect (Sf9) cells using standard baculoviral methods and a fluorescent 6-mer peptide synthesized by a single step reaction followed by high performance liquid chromatography (HPLC) purification. The assay was performed at room temperature using hGOAT membrane protein, octanoyl-CoA, a fluorescent ghrelin peptide, a buffer, and a detergent. Activity may be measure by detecting the presence of any octanoylation of the ghrelin peptide. For example, the presence of octanoylated ghrelin peptide may be confirmed by HPLC or by using a fluorescent system whose fluorescence will increase as a result of octanoylation of the ghrelin peptide.

mouse isoform of GOAT = molecular target: T2, mouse isoform of GOAT (Mus musculus, UniProt P0C7A3); test: cell-based inhibition of ghrelin octanoylation, acyl ghrelin ELISA in GOAT/preproghrelin transfected HEK293FT cells; settings: stably transfected HEK293FT cells, 24 hours incubation, read-out: cellular IC50, reduction of acyl ghrelin concentrations
T2 construct: expressed in transfected cells; host or cells: HEK293FT, stably transfected with the phPPG-mGOAT plasmid (gift from Dr. Jef Boeke's laboratory)
T2 sequence (P0C7A3 1-435): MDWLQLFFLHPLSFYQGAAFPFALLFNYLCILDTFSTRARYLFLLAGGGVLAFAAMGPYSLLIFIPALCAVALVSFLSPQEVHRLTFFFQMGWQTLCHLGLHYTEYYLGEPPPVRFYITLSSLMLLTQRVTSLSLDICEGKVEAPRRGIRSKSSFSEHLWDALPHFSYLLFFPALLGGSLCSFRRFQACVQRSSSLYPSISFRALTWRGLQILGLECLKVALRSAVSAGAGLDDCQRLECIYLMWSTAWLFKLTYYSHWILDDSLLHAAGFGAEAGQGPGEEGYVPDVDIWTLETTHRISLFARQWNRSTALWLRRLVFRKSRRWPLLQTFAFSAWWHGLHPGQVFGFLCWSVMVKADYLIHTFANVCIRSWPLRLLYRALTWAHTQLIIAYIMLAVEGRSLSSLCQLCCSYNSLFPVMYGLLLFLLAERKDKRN
Method: Stably transfected GOAT/Preproghrelin HEK 293FT cells were generated using the phPPG-mGOAT plasmid (a gift from Dr. Jef Boeke's laboratory) containing human preproghrelin (hPPG) and mouse ghrelin O-acyltransferase (mGOAT) connected by an intervening encephalomyocarditis virus internal ribosome entry site (ECMV-IRES) under puromycin selection as previously described. Cells were transfected using Lipofectamine 2000 (Invitrogen) at a 2 μL to 1 μg DNA ratio in 10 cm tissue culture-treated dishes according to manufacturer's protocol. The 293FT-hPPG-mGOAT cells were cultured in DMEM medium (Corning) supplemented with 10% inactivated fetal bovine serum, 1% penicillin/streptomycin, 1 ug/mL puromycin, and 0.01% octanoic acid and routinely passaged 2-3 times per week. A clonal line was chosen through serial dilution into a 96-well plate.
Cell density and number were optimized for detection of acyl ghrelin via ELISA (EMD Millipore Corp). 293FT-hPPG-mGOAT clonal cells were plated in the late afternoon in 24-plates at 2×10^5 cells/well. Cells were incubated overnight at 37° C., 5% CO2 and treated the next morning with inhibitors or vehicle (DMSO) in triplicate. Cells were treated for 24 hours and harvested after medium aspiration using 40 μL/well trypsin-EDTA (0.25%, Corning) containing 5 μM methoxy arachidonyl flourophosphonate (MAFP). […]

hGOAT [2] = molecular target: T1, hGOAT; test: in vitro hGOAT activity assay (inhibition of ghrelin peptide octanoylation, HPLC/fluorescence); assay type: biochemical; settings: for IC50: hGOAT membrane fraction from Sf9 cells, in vitro octanoylation assay
Method: as §1
A library of potential inhibitors was screened using the assay of the present invention. More particularly, membrane fractions from Sf9 cells expressing hGOAT were thawed on ice and homogenized by passing through an 18-gauge needle ten times. Membrane fraction containing ˜50-100 μg membrane protein (determined by Bradford assay) was preincubated for 30 minutes at room temperature with 1 μM MAFP, 500 μM octanoyl CoA, 50 mM HEPES (pH=7.0), and 1 μl Diversity Set compound dissolved in DMSO for a final inhibitor concentration of either 10 or 100 μM for primary screening. Reactions were initiated with the addition of 1.5 μM fluorescent peptide substrate, incubated at room temperature in the dark for 3 hours, then stopped with 50 μl 20% acetic acid in isopropanol. The solutions were clarified by protein precipitation with 16.7 μl 20% trichloroacetic acid, followed by centrifugation (1,000×g, 1 m). The resulting supernatant was analyzed by reverse phase HPLC.
Reactions followed the above procedure, and included inhibitor concentrations of 1, 5, 10, 50, or 100 μM, as well as a DMSO-only vehicle control. Compounds determined to act as hGOAT inhibitors are seen in FIGS. 4 through 6.

Active with hGOAT? (hGOAT [1]): yielded the octanoylated peptide and Yes
Molecule: AcDan-6: acrylodan-labeled ghrelin mimic peptide substrate, GSSFLCAcDan (SEQ. ID No. 5) (GSSFLC(acrylodan)-NH2; ends and bridges not checked)

Active with hGOAT? (hGOAT [1]): yielded the octanoylated peptide and Yes
Molecule: AcDan-5: acrylodan-labeled ghrelin mimic peptide substrate, GSSFCAcDanS (SEQ. ID No. 4) (GSSFC(acrylodan)S; ends and bridges not checked)

IC50 (mouse isoform of GOAT): 0.035 ± 0.01 µM
Molecule: COC(=O)[C@]12CCC(C)(C)C[C@H]1[C@H]1C(=O)C=C3[C@@]4(C)C=C(C#N)C(=O)C(C)(C)[C@@H]4CC[C@@]3(C)[C@]1(C)CC2 [CDDO-Me, methyl 2-cyano-3,12-dioxooleana-1,9(11)dien-28-oate]
inhibitory activity against hGOAT-catalyzed ghrelin octanoylation (in words) (hGOAT [2]; in vitro hGOAT activity assay): exhibits inhibitory activity against hGOAT

Active with hGOAT? (hGOAT [1]): not modified by hGOAT and No
Molecule: 1-Dansyl: fluorescent ghrelin mimic peptide substrate, Dansyl-GSSFLS (SEQ. ID No. 2) (ends and bridges not checked)

Active with hGOAT? (hGOAT [1]): not modified by hGOAT and No
Molecule: AcDan-2: acrylodan-labeled ghrelin mimic peptide substrate, GCAcDanSFLS (SEQ. ID No. 3) (GC(acrylodan)SFLS; ends and bridges not checked)

IC50 (mouse isoform of GOAT): 0.32 ± 0.15 µM
IC50 (hGOAT [2]): 8 ± 4 µM
Molecule: CCNC(=O)[C@]12CCC(C)(C)C[C@H]1[C@H]1C(=O)C=C3[C@@]4(C)C=C(C#N)C(=O)C(C)(C)[C@@H]4CC[C@@]3(C)[C@]1(C)CC2 [CDDO-EA]

Molecule: CC1(C)CC[C@]2(C(=O)n3ccnc3)CC[C@]3(C)[C@H](C(=O)C=C4[C@@]5(C)C=C(C#N)C(=O)C(C)(C)[C@@H]5CC[C@]43C)[C@@H]2C1 [CDDO-Im, 1[2-cyano-3,12-dioxooleana-1,9-dien-28-oyl]imidazole]
IC50 (hGOAT [2]): 38 ± 6 µM
